Data reported in patent US12605382B2, “Pharmaceutical composition for preventing, alleviating, or treating cancer containing 2,6-dichloro-4-(4-(4-hydroxycyclohexylamino)-7H- pyrrolo[2,3-d]pyrimidin-5-yl)phenol as active ingredient” (JBKLAB CO., LTD., priority 2021, dated 2026).

Legend:
CD8+ T cells = assay: Immunocytochemistry (IHC) analysis of tumor tissue, 4T1 allograft model; format: in vivo, BALB/c mice
From the text: (§1) In order to evaluate changes in the expression of proteins such as BRD4 and HIF-1α, the tumor cells isolated in Example 10 were subjected to immunocytochemistry (IHC) analysis to evaluate the changes in protein expression in the tumor microenvironment according to the treatment method.
(§2) Specifically, tumor tissue was extracted, fixed in 4% paraformaldehyde, and embedded in paraffin to create blocks. The paraffin block containing the tissue was sliced transversely to a thickness of 4 μm and attached to a slide. Paraffin was removed from the tissue attached to the slide using xylene and ethanol, and endogenous peroxidase was removed from the tissue by immersing the slide in a solution of 3% H2O2 in methanol for 10 minutes at room temperature. Then, for antigen retrieval, the slide was placed in 0.01 M sodium citrate buffer (pH 6.0) and boiled. In order to eliminate non-specific binding, FcR on the cell surface was blocked using 5% normal goat serum. Then, the slide was incubated overnight at 4° C. with primary antibodies (HIF-1a (SantaCruz, sc-13515), PD-L1 (Abcam, ab2025921), CD8 (Abcam, ab203035), and CD68 (CellSignaling, 97778)). Secondary antibodies were attached and color development was induced using ImmPRESSGoat Anti-Rat IgG (Mouse Adsorbed) Polymer kit (Vector Laboratories), Abcam (ab150165, ab150081), and REAL En Visiondetection system (Dako). The stained tissue was observed under an Axioskop40 optical microscope (Carl Zeiss) at 40× magnification, and the images were saved using AxioVision4.7 software. The expression level was measured through the area of the stained region in the photograph using Image J software (NIH, Bethesda). Average density values were calculated from at least three slides per sample.

HIF-1α = assay: as above; format: in vivo, BALB/c mice
From the text: as §1, §2

CD68+ macrophages = assay: as above; format: in vivo, BALB/c mice
From the text: as §1, §2

Brd4 = assay: as above; format: in vivo, BALB/c mice
From the text: as §1, §2

PD-L1 = assay: as above; format: in vivo, BALB/c mice
From the text: as §1, §2

MDA-MB-453 = assay: Cell viability, breast cancer cell line; format: cell-based; details: MDA-MB-453, 24 hours, dose dependently
Experimental: FIGS. 4A-4C show the cell viability of MDA-MB-231, MDA-MB-453, and BT-20 after 24 hours of treatment with the compound of Example 1. As shown in FIGS. 4A-4C, it was confirmed that the cell viability was suppressed not only in general breast cancer cell lines, but also in TNBC cell lines dose dependently.

HepG2 = assay: Clonogenic assay; format: cell-based; details: 2.5 and 5 μM, 10 days
Experimental: (§3) HepG2 and Hep3B were each seeded in 12-well plates at the density of 3×10^3 cells/well and cultured for 24 hours. Then, Sorafenib and the compound of Example 1 were treated thereto at 2.5 and 5 μM each and cultured for 10 days. Upon completion of the culture, the cells were washed with PBS, fixed with 37% formaldehyde, and stained with 0.01% crystal violet. After staining, the cells were washed with distilled water and the colonies of stained cells were photographed.

Hep3B = assay: Clonogenic assay; format: cell-based; details: 2.5 and 5 μM, 10 days
Experimental: as §3

[1] = tested on: tumor tissues (MDA-MB-231); assay: Number of apoptotic bodies in tumor tissues; format: in vivo, BALB/c-nude mice; details: for number of apoptotic body: sum of five areas at ×400
Experimental: An experiment was performed to confirm the tumor necrosis effect of the compound of Example 1, the active ingredient of the pharmaceutical composition of the present invention, by measuring the number of apoptotic bodies in tumors and H&E staining of the tumor tissues in BALB/c-nude mice injected with cancer cell lines.
Specifically, to measure the number of apoptotic bodies in the tumor tissues of the T4, T5, and T6 groups of Experimental Example 1, five areas where the tumor tissues were growing were randomly selected and the number of apoptotic bodies was measured at ×400 magnification. The sum of the measurements was calculated, expressed as individual values, and statistically compared using GraphPad Prism 5.

[2] = tested on: breast cancer cells (MBA-MB-231); assay: Xenograft tumor growth inhibition, TNBC cells in nude mice; format: in vivo; details: xenograft Balb/c nude mice, tumor size measured for 3 weeks
Experimental: An experiment was performed to confirm the tumor inhibition of the compound of Example 1, the active ingredient of the pharmaceutical composition of the present invention, on a xenograft tumor sample of breast cancer cells (MBA-MB-231), a human-derived TNBC cell line.
Specifically, to confirm the […] inhibitory effect of the compound of Example 1, the active ingredient of the pharmaceutical composition of the present invention, on breast cancer cell viability, an experiment was performed using 80 female 5-week-old xenograft Balb/c nude mice, which were approximately 8 weeks old at the start of administration.
The experimental xenograft Balb/c nude mice lacks T cells, the immune cells, were selected as an animal model suitable for transplanting human cancer cells. At the time of administration, animals within ±20% of the total average body weight were selected, and tumor growth was checked twice a week on the surface, and the size of the tumor was measured with a vernier caliper for 3 weeks.

A549 = assay: Cytotoxicity on cancer cell lines; format: cell-based; details: A549, dose dependently
Experimental: (§4) The cytotoxicity of the compound of Example 1 against various cancer cell lines was evaluated through a process similar to the evaluation of liver cancer cell line inhibition described above. Etoposide, sold as an anticancer agent, was used as a control group drug.

HCT15 = assay: Cytotoxicity on cancer cell lines; format: cell-based; details: HCT15, dose dependently
Experimental: as §4

SK-OV-3 = assay: Cytotoxicity on cancer cell lines; format: cell-based; details: SK-OV-3, dose dependently
Experimental: as §4

SK-MEL-2 = assay: Cytotoxicity on cancer cell lines; format: cell-based; details: SK-MEL-2, dose dependently
Experimental: as §4

Oc1c(Cl)cc(-c2c[nH]c3ncnc(N[C@H]4CC[C@H](O)CC4)c23)cc1Cl [Example 1, (trans)-2,6-dichloro-4-(4-(4-hydroxycyclohexylamino)-7H-pyrrolo[2,3-d]pyrimidin-5-yl)phenol]
population of CD8+ T cells (CD8+ T cells; alone): increased | population of CD8+ T cells (CD8+ T cells; combined with radiation): further increased (synergistic effect) | HIF-1α expression in tumor tissue (HIF-1α): significantly (P<0.05) reduced | population of CD68+ macrophages in tumor tissue (CD68+ macrophages): significantly (P<0.01) reduced | Brd4 expression in tumor tissue (Brd4): significantly (P<0.001) reduced | expression of PD-L1 (PD-L1): significantly (P<0.01) decreased | cell viability (MDA-MB-453): suppressed | number of colonies, treated vs not treated (HepG2): clear difference in the number of colonies | number of colonies, treated vs not treated (Hep3B): clear difference in the number of colonies | number of apoptotic bodies compared to NC (Negative Control) ([1]; T4, T5 and T6 groups, dose dependently): higher | number of apoptotic body ([1]; T4: 5 mg/kg once i.v.): 9.6 ± 4.7 | number of apoptotic body ([1]; T5: 10 mg/kg once i.v.): 9.2 ± 4.6 | number of apoptotic body ([1]; T6: 20 mg/kg once i.v.): 13.6 ± 7.4 | tumor growth [2]: significantly inhibit the tumor growth | toxicity to cancer cell line (A549): excellent toxicity | toxicity to cancer cell line (HCT15): excellent toxicity | toxicity to cancer cell line (SK-OV-3): excellent toxicity | toxicity to cancer cell line (SK-MEL-2): excellent toxicity
